Common to all, as to format: ADME, microsome
Series [1] relates to Liver. The series is described as follows: Drug metabolism in human liver microsomes assessed as covalent binding per mg protein at 10 uM preincubated for 5 mins followed by NADPH addition measured after 30 mins by liquid scintillation counting. The conditions noted are these: 0.5 h.
For series [2], the system named is Liver. Description: Drug level in human liver microsomes treated with 6-tert-butyl-8-fluoro-2-(2-(hydroxymethyl)-3-(1-methyl-5-(5-(methylsulfonyl)pyridin-2-ylamino)-6-oxo-1,6-dihydropyridin-3-yl)phenyl)phthalazin-1(2H)-one by UPLC-MS/MS method.
For series [3], the system named is Liver. Description: Drug metabolism in human liver microsomes assessed as covalent binding per mg protein at 10 uM in absence of NADPH measured after 30 mins by liquid scintillation counting. To be noted: 0.5 h.

Results on nine compounds are retold here after ChEMBL document CHEMBL4000210, “Mitigation of reactive metabolite formation for a series of 3-amino-2-pyridone inhibitors of Bruton's tyrosine kinase (BTK)” (Bioorg Med Chem Lett, 2017).

Take `CN1CCN(c2ccc(Nc3cc(-c4cccc(-n5ccc6cc(C7CC7)cc(F)c6c5=O)c4CO)cn(C)c3=O)nc2)CC1`: the Drug metabolism in the series with Liver [1] is 294 pmol. Same read-out and setting: the result for `Cn1cc(-c2cccc(-n3ncc4cc(C(C)(C)C)cc(F)c4c3=O)c2[14CH2]O)cc(Nc2ccc(C(=O)N3CCOCC3)cn2)c1=O` reads 294 pmol; that for `Cn1nc(-c2cccc(-n3ncc4cc(C(C)(C)C)cc(F)c4c3=O)c2[14CH2]O)cc(Nc2ccc(C(=O)N3CCOCC3)cn2)c1=O`, 26 pmol. `CN(C)c1ccc2c(c1)CCN(c1cccc(-c3cc(Nc4ccc(C(=O)N5CCOCC5)cn4)c(=O)n(C)c3)c1[14CH2]O)C2=O`: the Drug metabolism in the series on Liver [1] came out at 52 pmol. In the case of `CN1C(=O)/C(=N/c2ccc(S(C)(=O)=O)cn2)C=C(c2cccc(-n3ncc4cc(C(C)(C)CO)cc(F)c4c3=O)c2CO)C1SC[C@H](NC(=O)CC[C@H](N)C(=O)O)C(=O)NCC(=O)O` (stereo not given in full), the Drug metabolism result with Liver [2] was “Metabolite_Detected”.

On to `CN1CCN(c2ccc(Nc3cc(-c4cccc(-n5ncc6cc(C(C)(C)C)cc(F)c6c5=O)c4[14CH2]O)cn(C)c3=O)nc2)CC1`, for which the Drug metabolism in the series on Liver [1] is reported as 459 pmol; in the series with Liver [3], 49 pmol.

Consider `Cn1cc(-c2cccc(-n3ncc4cc(C(C)(C)C)cc(F)c4c3=O)c2[14CH2]O)cc(Nc2ccc(S(C)(=O)=O)cn2)c1=O`, for which, in the series on Liver [1], the Drug metabolism came to 386 pmol. In the case of `CN1C(=O)/C(=N/c2ccc(S(C)(=O)=O)cn2)C=C(c2cccc(-n3ncc4cc(C(C)(C)C)cc(F)c4c3=O)c2CO)C1SC[C@H](NC(=O)CC[C@H](N)C(=O)O)C(=O)NCC(=O)O` (stereo not given in full), in the series with Liver [2], the Drug metabolism entry is given as “Metabolite_Detected”. Consider `Cn1cc(-c2cccc(N3CCc4cc(C(C)(C)C)ccc4C3=O)c2[14CH2]O)cc(Nc2ccc(C(=O)N3CCOCC3)cn2)c1=O`, for which the Drug metabolism in the series with Liver [1] turned out to be 422 pmol.
